In patent publication US20090311217A1, “3-SUBSTITUTED-1H-INDOLE COMPOUNDS, THEIR USE AS MTOR KINASE AND PI3 KINASE INHIBITORS, AND THEIR SYNTHESES” (priority 2008, published 2009):

Key:
PI3K-gamma = PI3K-gamma (Homo sapiens, UniProt P48736); experiment: PI3K-gamma fluorescence polarization assay; format: biochemical; conditions: PI3Kγ Avg. IC50
Procedure, shortened: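 Reactions used 5 ng enzyme with 2.5 μM diC8-PI(4,5)P2 and 25 μM ATP in 5 mM HEPES pH 7, 2.5 mM MgCl2, run 1 h at 25° C. After an EDTA quench (10 mM), 100 nM GST-GRP1 PH domain and 5 nM BODIPY-TMR-IP4 were added and fluorescence polarization was read.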

PI3K-alpha = PI3K-alpha (Homo sapiens, UniProt P42336); experiment: PI3K-alpha fluorescence polarization assay; format: biochemical; conditions: read-out: PI3Kα Avg. IC50
PI3K-alpha, sequence (P42336 whole entry, species assumed): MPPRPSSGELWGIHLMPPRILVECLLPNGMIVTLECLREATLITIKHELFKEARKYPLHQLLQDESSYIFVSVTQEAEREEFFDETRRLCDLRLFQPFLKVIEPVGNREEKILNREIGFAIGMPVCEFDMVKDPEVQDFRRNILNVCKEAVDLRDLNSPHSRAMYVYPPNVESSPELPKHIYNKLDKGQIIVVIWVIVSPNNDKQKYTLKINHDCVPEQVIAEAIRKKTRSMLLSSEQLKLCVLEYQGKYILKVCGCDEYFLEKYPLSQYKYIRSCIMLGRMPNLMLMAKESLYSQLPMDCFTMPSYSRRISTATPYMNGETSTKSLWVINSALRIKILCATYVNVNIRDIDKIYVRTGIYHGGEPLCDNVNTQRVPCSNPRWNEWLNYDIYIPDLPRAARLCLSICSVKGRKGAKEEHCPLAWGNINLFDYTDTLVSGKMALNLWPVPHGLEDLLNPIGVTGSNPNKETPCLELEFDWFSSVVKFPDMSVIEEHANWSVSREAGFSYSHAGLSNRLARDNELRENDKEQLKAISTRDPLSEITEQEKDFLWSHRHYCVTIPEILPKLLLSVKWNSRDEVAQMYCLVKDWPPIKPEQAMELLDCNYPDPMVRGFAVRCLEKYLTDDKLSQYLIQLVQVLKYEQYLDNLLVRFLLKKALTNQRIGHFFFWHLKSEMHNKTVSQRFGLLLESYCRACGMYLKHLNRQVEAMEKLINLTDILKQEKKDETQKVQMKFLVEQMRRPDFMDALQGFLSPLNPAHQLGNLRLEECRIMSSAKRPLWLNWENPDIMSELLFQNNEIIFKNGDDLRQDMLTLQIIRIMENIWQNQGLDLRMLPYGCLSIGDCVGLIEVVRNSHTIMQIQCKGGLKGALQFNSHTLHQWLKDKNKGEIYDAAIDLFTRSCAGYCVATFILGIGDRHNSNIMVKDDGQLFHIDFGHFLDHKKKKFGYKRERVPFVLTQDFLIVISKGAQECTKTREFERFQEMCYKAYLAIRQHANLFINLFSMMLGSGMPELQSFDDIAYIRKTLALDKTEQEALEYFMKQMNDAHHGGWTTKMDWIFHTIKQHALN
PI3K-alpha, sequence (P27986 whole entry partner, species assumed): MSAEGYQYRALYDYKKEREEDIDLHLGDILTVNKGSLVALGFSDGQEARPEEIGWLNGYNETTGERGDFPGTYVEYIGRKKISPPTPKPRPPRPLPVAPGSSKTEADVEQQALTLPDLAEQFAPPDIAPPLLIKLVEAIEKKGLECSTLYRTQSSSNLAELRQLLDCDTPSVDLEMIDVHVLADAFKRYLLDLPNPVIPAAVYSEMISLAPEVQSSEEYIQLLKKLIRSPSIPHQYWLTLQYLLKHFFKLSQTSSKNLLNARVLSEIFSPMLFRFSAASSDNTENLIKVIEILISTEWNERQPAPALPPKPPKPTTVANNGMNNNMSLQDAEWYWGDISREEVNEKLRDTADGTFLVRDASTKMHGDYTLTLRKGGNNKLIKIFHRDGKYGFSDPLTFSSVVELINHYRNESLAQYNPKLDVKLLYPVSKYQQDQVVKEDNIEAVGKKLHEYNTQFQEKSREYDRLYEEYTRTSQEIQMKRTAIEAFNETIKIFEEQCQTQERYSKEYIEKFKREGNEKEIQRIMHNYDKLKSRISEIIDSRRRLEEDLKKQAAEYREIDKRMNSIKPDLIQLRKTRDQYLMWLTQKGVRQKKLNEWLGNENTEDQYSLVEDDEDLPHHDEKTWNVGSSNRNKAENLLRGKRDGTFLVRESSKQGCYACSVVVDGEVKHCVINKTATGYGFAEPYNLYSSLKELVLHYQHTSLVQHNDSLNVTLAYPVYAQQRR

PI3K-gamma, sequence (P48736 whole entry, species assumed, the tested form may be a part): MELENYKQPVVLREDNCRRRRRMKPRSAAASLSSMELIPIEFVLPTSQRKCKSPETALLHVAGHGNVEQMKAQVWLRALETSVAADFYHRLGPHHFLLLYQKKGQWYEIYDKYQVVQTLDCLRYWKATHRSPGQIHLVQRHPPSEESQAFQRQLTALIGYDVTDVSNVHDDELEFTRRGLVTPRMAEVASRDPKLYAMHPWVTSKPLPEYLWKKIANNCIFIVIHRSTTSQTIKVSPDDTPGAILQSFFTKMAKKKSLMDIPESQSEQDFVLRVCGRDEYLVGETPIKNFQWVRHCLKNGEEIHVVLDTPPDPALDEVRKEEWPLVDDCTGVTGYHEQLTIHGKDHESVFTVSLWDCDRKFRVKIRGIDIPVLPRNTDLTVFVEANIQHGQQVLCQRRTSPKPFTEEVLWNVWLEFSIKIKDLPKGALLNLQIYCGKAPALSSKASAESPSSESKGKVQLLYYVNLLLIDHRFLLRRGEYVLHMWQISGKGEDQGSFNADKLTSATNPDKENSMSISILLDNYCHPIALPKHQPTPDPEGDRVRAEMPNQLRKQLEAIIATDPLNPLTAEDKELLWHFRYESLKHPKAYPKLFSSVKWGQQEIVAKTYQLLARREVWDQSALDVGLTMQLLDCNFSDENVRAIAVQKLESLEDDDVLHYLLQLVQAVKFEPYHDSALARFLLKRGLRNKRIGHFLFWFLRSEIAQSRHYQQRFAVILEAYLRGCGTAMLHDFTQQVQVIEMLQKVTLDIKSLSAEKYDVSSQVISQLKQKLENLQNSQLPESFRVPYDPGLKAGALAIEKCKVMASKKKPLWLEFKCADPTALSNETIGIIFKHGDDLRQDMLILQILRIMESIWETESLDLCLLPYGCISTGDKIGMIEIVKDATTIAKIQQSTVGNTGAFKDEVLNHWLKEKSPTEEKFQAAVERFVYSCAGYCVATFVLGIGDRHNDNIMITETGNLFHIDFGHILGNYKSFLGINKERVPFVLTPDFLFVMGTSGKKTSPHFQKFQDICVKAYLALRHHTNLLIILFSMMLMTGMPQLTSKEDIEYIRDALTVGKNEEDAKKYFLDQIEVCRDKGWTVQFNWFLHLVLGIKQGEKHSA

| Structure (SMILES) | IC50 (PI3K-gamma) [nM] | IC50 (PI3K-alpha) [nM] |
| --- | --- | --- |
| CCNC(=O)Nc1ccc2c(c1)C(=O)/C(=C/c1cn(C)c3cccc(-c4ccccc4)c13)O2 [Compound 543, 1-ethyl-3-{(2Z)-2-[(1-methyl-4-phenyl-1H-indol-3-yl)methylidene]-3-oxo-2,3-dihydro-1-benzofuran-5-yl}urea] | > 10000 | > 10000 |
| COc1cc(/C=C/CN2CCN(C)CC2)c2[nH]cc(/C=C3\Oc4cc(O)ccc4C3=O)c2c1 [Compound 545, (2Z)-6-hydroxy-2-({5-methoxy-7-[(1E)-3-(4-methylpiperazin-1-yl)prop-1-en-1-yl]-1H-indol-3-yl}methylene)-1-benzofuran-3(2H)-one] | 1240 | 40.5 |
| CCNC(=O)Nc1ccc2c(c1)C(=O)/C(=C/c1cn(CCCN(C)C)c3ccc(OC)cc13)O2 [Compound 547, 1-[(2Z)-2-({1-[3-(dimethylamino)propyl]-5-methoxy-1H-indol-3-yl}methylene)-3-oxo-2,3-dihydro-1-benzofuran-5-yl]-3-ethylurea] | 2120 | 63 |
| C#CCNC(=O)Nc1ccc2c(c1)C(=O)/C(=C/c1cn(CCN3CCN(C)CC3)c3ccc(OC)cc13)O2 [Compound 548, 1-[(2Z)-2-({5-methoxy-1-[2-(4-methylpiperazin-1-yl)ethyl]-1H-indol-3-yl}methylene)-3-oxo-2,3-dihydro-1-benzofuran-5-yl]-3-prop-2-yn-1-ylurea] | 2790 | 64.5 |
| COc1ccc2c(c1)c(/C=C1\Oc3ccc(NC(=O)NCCN)cc3C1=O)cn2CCN1CCN(C)CC1 [Compound 549, 1-(2-aminoethyl)-3-[(2Z)-2-({5-methoxy-1-[2-(4-methylpiperazin-1-yl)ethyl]-1Hindol-3-yl}methylene)-3-oxo-2,3-dihydro-1-benzofuran-5-yl]urea] | 2980 | 13.5 |
| C=CCNC(=O)Nc1ccc2c(c1)C(=O)/C(=C/c1cn(CCN3CCN(C)CC3)c3ccc(OC)cc13)O2 [Compound 550, 1-allyl-3-[(2Z)-2-({5-methoxy-1-[2-(4-methylpiperazin-1-yl)ethyl]-1H-indol-3-yl}methylene)-3-oxo-2,3-dihydro-1-benzofuran-5-yl]urea] | 1130 | 64.5 |
| COc1ccc2c(c1)c(/C=C1\Oc3ccc(NC(N)=O)cc3C1=O)cn2CCN1CCN(C)CC1 [Compound 551, 1-[(2Z)-2-({5-methoxy-1-[2-(4-methylpiperazin-1-yl)ethyl]-1H-indol-3-yl}methylene)-3-oxo-2,3-dihydro-1-benzofuran-5-yl]urea] | 3150 | 192 |
| COc1ccc2c(c1)c(/C=C1\Oc3ccc(NC(=O)NC4CNC4)cc3C1=O)cn2CCN1CCN(C)CC1 [Compound 552, 1-azetidin-3-yl-3-[(2Z)-2-({5-methoxy-1-[2-(4-methylpiperazin-1-yl)ethyl]-1Hindol-3-yl}methylene)-3-oxo-2,3-dihydro-1-benzofuran-5-yl]urea] | > 10000 | 355 |
| CNC(=O)Nc1ccc2c(c1)C(=O)/C(=C/c1cn(CCN3CCN(C)CC3)c3ccc(OC)cc13)O2 [Compound 553, 1-[(2Z)-2-({5-methoxy-1-[2-(4-methylpiperazin-1-yl)ethyl]-1H-indol-3-yl}methylene)-3-oxo-2,3-dihydro-1-benzofuran-5-yl]-3-methylurea] | 4830 | 31 |
| COc1ccc2c(c1)c(/C=C1\Oc3ccc(NC(=O)NCCO)cc3C1=O)cn2CCCN(C)C [Compound 554, 1-[(2Z)-2-({1-[3-(dimethylamino)propyl]-5-methoxy-1H-indol-3-yl}methylene)-3-oxo-2,3-dihydro-1-benzofuran-5-yl]-3-(2-hydroxyethyl)urea] | 5260 | 73 |
| COc1cc(/C=C/CN2CCCCC2)c2[nH]cc(/C=C3\Oc4cc(O)ccc4C3=O)c2c1 [Compound 555, (2Z)-6-hydroxy-2-({5-methoxy-7-[(1E)-3-piperidin-1-ylprop-1-en-1-yl]-1H-indol-3-yl}methylene)-1-benzofuran-3(2H)-one] | 1890 | 48 |
| CNC(=O)Nc1ccc2c(c1)C(=O)/C(=C/c1c(C)n(CCN3CCN(C)CC3)c3ccc(OC)cc13)O2 [Compound 556, 1-[(2Z)-2-({5-methoxy-2-methyl-1-[2-(4-methylpiperazin-1-yl)ethyl]-1H-indol-3-yl}methylene)-3-oxo-2,3-dihydro-1-benzofuran-5-yl]-3-methylurea] | 835 | 2.15 |
| Cn1cc(/C=C2/Oc3cc(O)cc(O)c3C2=O)c2c(-c3ccccc3)cccc21 [Compound 557, (2E)-4,6-dihydroxy-2-[(1-methyl-4-phenyl-1H-indol-3-yl)methylene]-1-benzofuran-3(2H)-one] | > 10000 | 1200 |
| CNC(=O)Nc1ccc2c(c1)C(=O)/C(=C/c1c(C3CC3)n(CCN3CCN(C)CC3)c3ccc(OC)cc13)O2 [Compound 559, 1-[(2Z)-2-({2-cyclopropyl-5-methoxy-1-[2-(4-methylpiperazin-1-yl)ethyl]-1Hindol-3-yl}methylene)-3-oxo-2,3-dihydro-1-benzofuran-5-yl]-3-methylurea] | 537 | 2.25 |
| COc1ccc2c(c1)c(/C=C1\Oc3ccc(NC(=O)NC4CC4)cc3C1=O)cn2CCCN(C)C [Compound 560, 1-cyclopropyl-3-[(2Z)-2-({1-[3-(dimethylamino)propyl]-5-methoxy-1H-indol-3-yl}methylene)-3-oxo-2,3-dihydro-1-benzofuran-5-yl]urea] | 1600 | 132 |
| CNC(=O)Nc1ccc2c(c1)C(=O)/C(=C/c1c(C3CCCC3)n(CCN3CCN(C)CC3)c3ccc(OC)cc13)O2 [Compound 561, 1-[(2Z)-2-({2-cyclopentyl-5-methoxy-1-[2-(4-methylpiperazin-1-yl)ethyl]-1Hindol-3-yl}methylene)-3-oxo-2,3-dihydro-1-benzofuran-5-yl]-3-methylurea] | 378 | 3.15 |
| CNC(=O)Nc1ccc2c(c1)C(=O)/C(=C/c1c(C3CCC3)n(CCN3CCN(C)CC3)c3ccc(OC)cc13)O2 [Compound 562, 1-[(2Z)-2-({2-cyclobutyl-5-methoxy-1-[2-(4-methylpiperazin-1-yl)ethyl]-1H-indol-3-yl}methylene)-3-oxo-2,3-dihydro-1-benzofuran-5-yl]-3-methylurea] | 209 | 2.85 |
| CNCCNC(=O)Nc1ccc2c(c1)C(=O)/C(=C/c1cn(CCN3CCN(C)CC3)c3ccc(OC)cc13)O2 [Compound 563, 1-[(2Z)-2-({5-methoxy-1-[2-(4-methylpiperazin-1-yl)ethyl]-1H-indol-3-yl}methylene)-3-oxo-2,3-dihydro-1-benzofuran-5-yl]-3-[2-(methylamino)ethyl]urea] | 5220 | 35.5 |
| CNCCCNC(=O)Nc1ccc2c(c1)C(=O)/C(=C/c1cn(CCN3CCN(C)CC3)c3ccc(OC)cc13)O2 [Compound 564, 1-[(2Z)-2-({5-methoxy-1-[2-(4-methylpiperazin-1-yl)ethyl]-1H-indol-3-yl}methylene)-3-oxo-2,3-dihydro-1-benzofuran-5-yl]-3-[3-(methylamino)propyl]urea] | 7620 | 95.5 |
| COc1ccc2c(c1)c(/C=C1\Oc3ccc(NC(=O)NCCCCN)cc3C1=O)cn2CCN1CCN(C)CC1 [Compound 565, 1-(4-aminobutyl)-3-[(2Z)-2-({5-methoxy-1-[2-(4-methylpiperazin-1-yl)ethyl]-1Hindol-3-yl}methylene)-3-oxo-2,3-dihydro-1-benzofuran-5-yl]urea] | > 10000 | 114 |
